Measurements: PMC5242521 (PLoS ONE, 2017)
Several values for one entry are separate records, joined by “and”; a condition that tells them apart may be missing. Equal entries are not always repeated.

What was measured:
[1] = biological target: T1, OCT1 (Homo sapiens, UniProt O15245); experiment: OCT1 activity: DAPI accumulation in HEK-OCT1 cells; conditions: for effect on OCT1 activity: pyrethroid 100 μM, DAPI; for inhibition at 100 μM: human
T1 sequence (O15245 1-554): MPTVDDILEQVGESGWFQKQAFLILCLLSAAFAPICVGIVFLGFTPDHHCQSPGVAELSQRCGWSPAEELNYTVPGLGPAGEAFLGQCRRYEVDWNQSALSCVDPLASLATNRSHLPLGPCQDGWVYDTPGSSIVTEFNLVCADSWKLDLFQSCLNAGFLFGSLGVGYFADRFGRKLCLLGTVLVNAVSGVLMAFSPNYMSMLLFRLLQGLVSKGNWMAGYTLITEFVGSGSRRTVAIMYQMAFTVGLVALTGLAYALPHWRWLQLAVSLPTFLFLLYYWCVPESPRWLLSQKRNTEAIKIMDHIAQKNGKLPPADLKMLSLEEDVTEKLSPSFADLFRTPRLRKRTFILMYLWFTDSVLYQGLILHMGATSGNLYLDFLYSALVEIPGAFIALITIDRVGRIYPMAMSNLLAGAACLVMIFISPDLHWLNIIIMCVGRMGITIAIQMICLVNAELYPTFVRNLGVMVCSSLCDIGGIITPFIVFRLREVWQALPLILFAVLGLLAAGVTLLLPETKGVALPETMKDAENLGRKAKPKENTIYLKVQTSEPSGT
Description: (§1) The effects of pyrethroids on activity of ABC and SLC transporters were determined through measuring cellular accumulation or retention of fluorescent or radiolabeled reference substrates for transporters, in the presence or absence of reference inhibitors, as previously described. The nature of cells and reference substrates and inhibitors used for transport assays are summarized in S3 Table.
(§2) The nature of substrates and reference inhibitors and the incubation times with substrates, that varied according to the transporter, were selected in agreement with previous studies and are indicated in S3 Table. The total incubation volume with substrates was 200 μL/well. […] An aliquot of cell lysate (5 μL) was then taken for determining cellular protein content by the Bradford method.
(§3) Intracellular concentrations of reference substrates were initially expressed as fluorescence arbitrary units (for fluorescent dye substrates) or as moles (for radiolabeled substrates) and normalized to cellular protein content, determined by the Bradford method. They were finally used for calculating percentage of transporter activity, according to the following equations [41, 45]: %ABCtransporter activity=([Substrateref inh]-[Substratepyrethroid])×100/([Substrateref inh]-[Substratecontrol]) (1) %SLC transporter activity=([Substratepyrethroid]-[Substratref inh])×100/([Substratecontrol]-[Substrateref inh]) (2) with [Substratepyrethroid] = cellular concentration of reference substrate in the presence of pyrethroid, [Substrateref inh] = cellular concentration of reference substrate in the presence of reference inhibitor and [Substratecontrol] = cellular concentration of reference substrate in control cells not exposed to pyrethroid or reference inhibitor.
(§4) The initial tested concentration of pyrethroids was 100 μM. […] Such concentrations were calculated using GraphPad Prism software (GraphPad Software, La Jolla, CA), through nonlinear regression based on the four parameter logistic function using the following equations: […]

[2] = biological target: T2, OCT2 (Homo sapiens, UniProt O15244); experiment: OCT2 activity: rhodamine 123 accumulation in HEK-OCT2 cells; conditions: human
T2 sequence (O15244 1-555): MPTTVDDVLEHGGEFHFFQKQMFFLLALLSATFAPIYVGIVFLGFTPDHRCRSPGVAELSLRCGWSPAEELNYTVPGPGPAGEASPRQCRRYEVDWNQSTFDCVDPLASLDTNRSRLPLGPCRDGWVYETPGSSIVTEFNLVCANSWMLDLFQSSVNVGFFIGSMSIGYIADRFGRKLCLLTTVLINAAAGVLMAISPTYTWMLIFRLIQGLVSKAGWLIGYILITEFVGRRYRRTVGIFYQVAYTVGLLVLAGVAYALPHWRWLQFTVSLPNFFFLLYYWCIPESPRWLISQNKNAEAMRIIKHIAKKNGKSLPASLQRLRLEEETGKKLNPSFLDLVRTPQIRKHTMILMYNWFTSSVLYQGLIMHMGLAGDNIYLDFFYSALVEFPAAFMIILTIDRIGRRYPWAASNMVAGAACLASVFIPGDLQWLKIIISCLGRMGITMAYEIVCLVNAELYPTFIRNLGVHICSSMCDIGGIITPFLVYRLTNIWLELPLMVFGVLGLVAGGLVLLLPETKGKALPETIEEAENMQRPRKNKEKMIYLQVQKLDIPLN
Description: as §1, §2, §3, §4

[3] = biological target: T1, OCT1; experiment: Trans-stimulation assay of TEA uptake in OCT1-transfected HEK293 cells; assay type: cell-based; conditions: pre-loading 60 min with 100 μM pyrethroid or 2 mM unlabeled TEA; HEK-OCT1 cells
Description: Trans-stimulation assays were performed as previously described. Briefly, OCT1-transfected HEK293 cells were first preloaded with 2 mM unlabeled TEA or 100 μM pyrethroid for 60 min at 37°c in the transport assay medium described above. After washing twice with PBS, cells were next re-incubated in transport assay medium containing 29 μM [1-^14C]-TEA for 5 min at 37°C. After washing twice with PBS, cells were lysed in distilled water and intracellular accumulation of [1-^14C]-TEA was then determined by scintillation counting.
Intracellular accumulation of TEA was then determined by scintillation counting. […] After washing, cells were next re-incubated with 29 μM [1-^14C]-TEA for 5 min at 37°C. Intracellular accumulation of [1-^14C]-TEA was then determined by scintillation counting.

[4] = design: method as in PMID 12708229; conditions: human subjects environmentally exposed; ref [70]; cited from earlier work
[5] = biological target: P-gp (Homo sapiens, UniProt P08183); experiment: P-gp activity: rhodamine 123 accumulation in MCF7R cells; conditions: pyrethroid 100 μM
Description: as §1
(§5) For accumulation assays (performed for all transporters, excepted BCRP), transporter-expressing cells usually cultured in 48-well plates were first incubated at 37°C with reference substrates in the absence (control) or presence of pyrethroids or reference inhibitors, in a well-defined transport assay medium, consisting of 136 mM NaCl, 5.3 mM KCl, 1.1mM KH2PO4, 0.8 mM MgSO4, 1.8 mM CaCl2, 10 mM HEPES, 11 mM D-glucose and adjusted to pH = 7.4 (excepted for MATE transporter assays, for which pH was set to 8.4). The nature of substrates and reference inhibitors and the incubation times with substrates, that varied according to the transporter, were selected in agreement with previous studies and are indicated in S3 Table. The total incubation volume with substrates was 200 μL/well. After washing twice in phosphate-buffered saline (PBS) (200 μL/well/washing), cells were lysed in distilled water (155 μL/well). An aliquot of cell lysate (5 μL) was then taken for determining cellular protein content by the Bradford method. The rest of lysate (150 μL/well) was used for measuring intracellular accumulation of reference substrates by scintillation counting or spectrofluorimetry using a SpectraMax Gemini SX spectrofluorometer (Molecular Devices, Sunnyvale, CA, USA) (excitation and emission wavelengths were 485 and 535 nm, respectively, for rhodamine 123 and fluorescein, and 355 and 460 nm, respectively, for DAPI).
as §3, §4

[6] = test system: P-gp; conditions: ref [26], [27]; cited from earlier work
[7] = biological target: T3, OAT3 (Homo sapiens, UniProt Q8TCC7); experiment: OAT3 activity: fluorescein accumulation in HEK-OAT3 cells; conditions: human, pH 7.4
T3 sequence (Q8TCC7 1-542): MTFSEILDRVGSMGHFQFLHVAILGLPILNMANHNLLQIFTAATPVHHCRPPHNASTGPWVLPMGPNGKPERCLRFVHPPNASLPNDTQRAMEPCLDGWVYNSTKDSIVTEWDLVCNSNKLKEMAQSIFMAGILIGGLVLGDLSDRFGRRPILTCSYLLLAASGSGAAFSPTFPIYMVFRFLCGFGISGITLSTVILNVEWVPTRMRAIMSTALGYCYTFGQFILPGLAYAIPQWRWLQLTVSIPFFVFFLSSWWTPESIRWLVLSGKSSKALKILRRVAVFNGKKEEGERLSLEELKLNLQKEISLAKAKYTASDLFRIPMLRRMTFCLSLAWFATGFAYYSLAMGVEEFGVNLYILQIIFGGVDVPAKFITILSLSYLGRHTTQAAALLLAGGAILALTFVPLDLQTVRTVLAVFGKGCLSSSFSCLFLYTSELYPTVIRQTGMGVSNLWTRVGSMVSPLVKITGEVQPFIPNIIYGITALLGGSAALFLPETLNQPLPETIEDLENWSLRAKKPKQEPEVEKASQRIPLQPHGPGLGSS
Description: as §1, §5, §3, §4

[8] = biological target: T4, OAT1 (Homo sapiens, UniProt Q4U2R8); experiment: OAT1 activity: fluorescein accumulation in HEK-OAT1 cells; assay type: cell-based; conditions: human, pH 7.4; pyrethroid 100 μM; HEK-OAT1 cells, fluorescein
T4 construct: host or cells: HEK293
T4 sequence (Q4U2R8 1-563): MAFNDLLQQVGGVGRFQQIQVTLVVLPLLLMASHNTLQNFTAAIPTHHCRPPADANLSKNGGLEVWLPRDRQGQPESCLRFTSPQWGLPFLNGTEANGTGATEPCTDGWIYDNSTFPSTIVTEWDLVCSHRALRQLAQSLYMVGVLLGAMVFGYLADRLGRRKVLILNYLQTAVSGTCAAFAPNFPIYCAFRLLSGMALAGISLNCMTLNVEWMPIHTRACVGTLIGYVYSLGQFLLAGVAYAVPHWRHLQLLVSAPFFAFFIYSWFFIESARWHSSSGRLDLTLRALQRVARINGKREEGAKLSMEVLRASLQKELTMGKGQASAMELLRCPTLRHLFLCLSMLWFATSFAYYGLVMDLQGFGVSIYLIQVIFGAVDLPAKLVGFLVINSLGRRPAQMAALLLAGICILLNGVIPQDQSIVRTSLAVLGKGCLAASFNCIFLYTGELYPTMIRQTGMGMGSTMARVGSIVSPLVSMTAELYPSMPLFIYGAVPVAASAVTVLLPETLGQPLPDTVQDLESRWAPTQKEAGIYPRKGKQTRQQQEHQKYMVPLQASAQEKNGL
Description: The effects of pyrethroids on activity of ABC and SLC transporters were determined through measuring cellular accumulation or retention of fluorescent or radiolabeled reference substrates for transporters, in the presence or absence of reference inhibitors, as previously described [41].
The total incubation volume with substrates was 200 μL/well. […] An aliquot of cell lysate (5 μL) was then taken for determining cellular protein content by the Bradford method [44].
Intracellular concentrations of reference substrates were initially expressed as fluorescence arbitrary units (for fluorescent dye substrates) or as moles (for radiolabeled substrates) and normalized to cellular protein content, determined by the Bradford method [44]. They were finally used for calculating percentage of transporter activity, according to the following equations [41, 45]: %ABCtransporter activity=([Substrateref inh]-[Substratepyrethroid])×100/([Substrateref inh]-[Substratecontrol]) (1) %SLC transporter activity=([Substratepyrethroid]-[Substratref inh])×100/([Substratecontrol]-[Substrateref inh]) (2) with [Substratepyrethroid] = cellular concentration of reference substrate in the presence of pyrethroid, [Substrateref inh] = cellular concentration of reference substrate in the presence of reference inhibitor and [Substratecontrol] = cellular concentration of reference substrate in control cells not exposed to pyrethroid or reference inhibitor.

[9] = HEK-OCT2 cells, pH 7.4, probe rhodamine 123

P-gp (Homo sapiens, UniProt P08183), sequence (P08183 whole entry): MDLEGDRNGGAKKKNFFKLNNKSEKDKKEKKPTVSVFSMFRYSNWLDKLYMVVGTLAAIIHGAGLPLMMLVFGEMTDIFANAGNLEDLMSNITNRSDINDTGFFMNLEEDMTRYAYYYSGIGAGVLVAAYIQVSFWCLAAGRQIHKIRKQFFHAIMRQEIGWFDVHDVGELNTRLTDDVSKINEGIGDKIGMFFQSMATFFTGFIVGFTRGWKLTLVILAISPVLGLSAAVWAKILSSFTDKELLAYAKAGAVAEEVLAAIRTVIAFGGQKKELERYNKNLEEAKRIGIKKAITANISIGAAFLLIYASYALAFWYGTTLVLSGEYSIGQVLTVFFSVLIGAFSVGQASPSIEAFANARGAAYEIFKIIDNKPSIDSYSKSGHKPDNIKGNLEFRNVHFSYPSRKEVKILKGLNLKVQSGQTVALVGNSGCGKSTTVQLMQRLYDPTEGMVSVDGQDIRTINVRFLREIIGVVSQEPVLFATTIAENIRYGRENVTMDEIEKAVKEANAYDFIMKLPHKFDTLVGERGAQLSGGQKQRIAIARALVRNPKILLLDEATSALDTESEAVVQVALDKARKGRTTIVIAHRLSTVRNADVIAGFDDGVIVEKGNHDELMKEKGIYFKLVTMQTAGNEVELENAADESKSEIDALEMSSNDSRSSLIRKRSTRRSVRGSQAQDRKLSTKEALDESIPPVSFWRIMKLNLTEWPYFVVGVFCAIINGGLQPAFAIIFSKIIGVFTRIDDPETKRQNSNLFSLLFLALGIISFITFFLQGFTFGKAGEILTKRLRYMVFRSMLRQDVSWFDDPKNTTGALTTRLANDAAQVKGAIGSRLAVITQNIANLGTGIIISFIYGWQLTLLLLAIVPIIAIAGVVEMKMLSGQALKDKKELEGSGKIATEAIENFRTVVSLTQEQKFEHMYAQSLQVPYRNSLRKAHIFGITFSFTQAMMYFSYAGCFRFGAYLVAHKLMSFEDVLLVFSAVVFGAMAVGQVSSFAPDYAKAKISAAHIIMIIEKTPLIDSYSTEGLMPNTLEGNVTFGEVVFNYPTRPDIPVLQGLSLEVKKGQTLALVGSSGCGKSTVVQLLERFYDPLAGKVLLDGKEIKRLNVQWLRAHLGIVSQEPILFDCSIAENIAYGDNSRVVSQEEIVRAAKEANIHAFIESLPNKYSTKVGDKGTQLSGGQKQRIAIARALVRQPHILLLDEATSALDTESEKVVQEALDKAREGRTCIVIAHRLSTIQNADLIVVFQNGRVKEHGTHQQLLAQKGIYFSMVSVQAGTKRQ

Cc1c(COC(=O)[C@@H]2[C@H](/C=C(\Cl)C(F)(F)F)C2(C)C)cccc1-c1ccccc1 (racemic) [bifenthrin]
effect on OCT1 activity [1]: failed to significantly alter

Cc1c(F)c(F)c(COC(=O)[C@@H]2[C@H](/C=C(\Cl)C(F)(F)F)C2(C)C)c(F)c1F (racemic) [tefluthrin]
inhibition at 100 μM ([2]; pH 7.4): ~25%
inhibition at 100 μM ([1]; pH 7.4): 30.1 to 48.8%

CC1(C)[C@H](C(=O)O[C@H](C#N)c2cccc(Oc3ccccc3)c2)[C@@H]1/C=C(\Cl)C(F)(F)F (racemic) [λ-cyhalothrin]
inhibition at 100 μM ([1]; pH 7.4): 30.1 to 48.8%

CC[N+](CC)(CC)CC [TEA, tetra-ethylammonium bromide, reference compound]
effect of pre-loading on radiolabeled TEA uptake (trans-stimulation assay) [3]: trans-stimulation

CC1(C)[C@H](C(=O)OCc2cccc(Oc3ccccc3)c2)[C@@H]1C=C(Cl)Cl [cis-permethrin]
effect on OCT1 activity [1]: failed to significantly alter

CC1(C)C(C=C(Cl)Cl)C1C(=O)OC(C#N)c1ccc(F)c(Oc2ccccc2)c1 (centres unmarked) [cyfluthrin]
blood concentration [4]: < 5 μg/L and < 12.8 nM

CC1(C)C(C=C(Cl)Cl)C1C(=O)OC(C#N)c1cccc(Oc2ccccc2)c1 (centres unmarked) [cypermethrin]
blood concentration [4]: < 5 μg/L and < 12.8 nM
effect on P-gp activity [5]: did not alter

CC1(C)C(C(=O)OC(C#N)c2cccc(Oc3ccccc3)c2)C1(C)C (centres unmarked) [fenpropathrin]
inhibition at 100 μM ([1]; pH 7.4): 30.1 to 48.8%

CC(C)[C@H](Nc1ccc(C(F)(F)F)cc1Cl)C(=O)OC(C#N)c1cccc(Oc2ccccc2)c1 (some centres unmarked) [fluvalinate]
effect on P-gp activity or ATPase activity [6]: inhibit
effect on P-gp activity [5]: did not alter

CC1(C)[C@H](C=C(Cl)Cl)[C@H]1C(=O)OCc1cccc(Oc2ccccc2)c1 [trans-permethrin]
inhibition at 100 μM [2, 9]: ~25%
inhibition at 100 μM ([1]; pH 7.4): 30.1 to 48.8%

CC1(C)[C@H](C=C(Cl)Cl)[C@H]1C(=O)O[C@@H](C#N)c1cccc(Oc2ccccc2)c1 [β-cypermethrin]
inhibition at 100 μM [2, 9]: ~25%
inhibition at 100 μM ([1]; HEK-OCT1 cells, pH 7.4, probe DAPI): 30.1%

CC(C)[C@@H](Nc1ccc(C(F)(F)F)cc1Cl)C(=O)OC(C#N)c1cccc(Oc2ccccc2)c1 (some centres unmarked) [τ-fluvalinate]
inhibition at 100 μM [7]: 15.6%
inhibition at 100 μM ([2]; pH 7.4): ~25%
effect on OCT1 activity [1]: failed to significantly alter
inhibition at 100 μM [8]: 42.8%
